Results taken from PubChem BioAssay AID1259407 (Chemical Carcinogenesis Research Information System (CCRIS), 2018).
Activity calls are given as the source filed them. No rule for the calls is given here.

Test system: CCRIS mutagenicity, Ames/micronucleus/aberration tests
Test: CCRIS mutagenicity studies
[1] = Test System: AMES SALMONELLA TYPHIMURIUM, Strain/Indicator: TA98, Metabolic Activation: NONE, Method: PREINCUBATION
[2] = Test System: AMES SALMONELLA TYPHIMURIUM, Strain/Indicator: TA1537, Metabolic Activation: NONE, Method: PREINCUBATION
[3] = Test System: AMES SALMONELLA TYPHIMURIUM, Strain/Indicator: TA100, Metabolic Activation: NONE, Method: PREINCUBATION
[4] = Test System: AMES SALMONELLA TYPHIMURIUM, Strain/Indicator: TA1535, Metabolic Activation: NONE, Method: PREINCUBATION
[5] = Test System: Ames Salmonella typhimurium, Strain/Indicator: TA100, Metabolic Activation: None, Method: Preincubation

Measured: mutagenic call

O.O.O.O.O.[Cd+2].[Cd+2].[Cl-].[Cl-].[Cl-].[Cl-]
inactive: End Point: In vivo micronucleus, Test System: Bone marrow polychromatic erythrocytes, Species: Mouse, Strain/Sex: C57BL/6J/Han/Male, Route: Oral inactive; negative | [1] inactive; negative | Test System: AMES SALMONELLA TYPHIMURIUM, Strain/Indicator: TA98, Metabolic Activation: RAT LIVER S-9, PHENOBARBITAL AND BETA-NAPHTHOFLAVONE, Method: PREINCUBATION inactive; negative | Test System: AMES SALMONELLA TYPHIMURIUM, Strain/Indicator: TA100, Metabolic Activation: RAT LIVER S-9, PHENOBARBITAL AND BETA-NAPHTHOFLAVONE, Method: PREINCUBATION inactive; negative | Test System: AMES SALMONELLA TYPHIMURIUM, Strain/Indicator: TA1535, Metabolic Activation: RAT LIVER S-9, PHENOBARBITAL AND BETA-NAPHTHOFLAVONE, Method: PREINCUBATION inactive; negative | [2] inactive; negative | Test System: AMES SALMONELLA TYPHIMURIUM, Strain/Indicator: TA1537, Metabolic Activation: RAT LIVER S-9, PHENOBARBITAL AND BETA-NAPHTHOFLAVONE, Method: PREINCUBATION inactive; negative | Test System: AMES SALMONELLA TYPHIMURIUM, Strain/Indicator: TA1538, Metabolic Activation: NONE, Method: PREINCUBATION inactive; negative | Test System: AMES SALMONELLA TYPHIMURIUM, Strain/Indicator: TA1538, Metabolic Activation: RAT LIVER S-9, PHENOBARBITAL AND BETA-NAPHTHOFLAVONE, Method: PREINCUBATION inactive; negative | Test System: E.COLI, Strain/Indicator: WP2UVRA, Metabolic Activation: NONE, Method: PREINCUBATION inactive; negative | Test System: E.COLI, Strain/Indicator: WP2UVRA, Metabolic Activation: RAT LIVER S-9, PHENOBARBITAL AND BETA-NAPHTHOFLAVONE, Method: PREINCUBATION inactive; negative

CN(N=O)C(=O)Nc1ccc(F)cc1
active: End Point: IN VITRO CHROMOSOMAL ABERRATIONS, Test System: CHINESE HAMSTER V79-E CELLS, Metabolic Activation: NONE active; weakly positive

C[C@@H]1COc2c(N3CCN(C)CC3)c(F)cc3c(=O)c(C(=O)O)cn1c23
inactive: [1] inactive; negative | Test System: AMES SALMONELLA TYPHIMURIUM, Strain/Indicator: TA98, Metabolic Activation: RAT, LIVER, S-9, PHENOBARBITAL AND BETA-NAPHTHOFLAVONE, Method: PREINCUBATION inactive; negative | [3] inactive; negative | Test System: AMES SALMONELLA TYPHIMURIUM, Strain/Indicator: TA100, Metabolic Activation: RAT, LIVER, S-9, PHENOBARBITAL AND BETA-NAPHTHOFLAVONE, Method: PREINCUBATION inactive; negative | [4] inactive; negative | Test System: AMES SALMONELLA TYPHIMURIUM, Strain/Indicator: TA1535, Metabolic Activation: RAT, LIVER, S-9, PHENOBARBITAL AND BETA-NAPHTHOFLAVONE, Method: PREINCUBATION inactive; negative | [2] inactive; negative | Test System: AMES SALMONELLA TYPHIMURIUM, Strain/Indicator: TA1537, Metabolic Activation: RAT, LIVER, S-9, PHENOBARBITAL AND BETA-NAPHTHOFLAVONE, Method: PREINCUBATION inactive; negative | Test System: E.COLI, Strain/Indicator: WP2 UVRA, Metabolic Activation: NONE, Method: PREINCUBATION inactive; negative | Test System: E.COLI, Strain/Indicator: WP2 UVRA, Metabolic Activation: RAT, LIVER, S-9, PHENOBARBITAL AND BETA-NAPHTHOFLAVONE, Method: PREINCUBATION inactive; negative

Nc1ccc(-c2cc([N+](=O)[O-])c(N)c(Cl)c2Cl)cc1
inactive: [5] inactive; negative | Test System: Ames Salmonella typhimurium, Strain/Indicator: YG1029, Metabolic Activation: None, Method: Preincubation inactive; negative
active: Test System: Ames Salmonella typhimurium, Strain/Indicator: TA98, Metabolic Activation: None, Method: Preincubation active; positive. weak response. | Test System: Ames Salmonella typhimurium, Strain/Indicator: TA98, Metabolic Activation: Rat, Liver, S-9, Phenobarbital and 5,6-benzoflavone, Method: Preincubation active; positive | Test System: Ames Salmonella typhimurium, Strain/Indicator: TA100, Metabolic Activation: Rat, Liver, S-9, Phenobarbital and 5,6-benzoflavone, Method: Preincubation active; positive | Test System: Ames Salmonella typhimurium, Strain/Indicator: YG1024, Metabolic Activation: None, Method: Preincubation active; positive | Test System: Ames Salmonella typhimurium, Strain/Indicator: YG1024, Metabolic Activation: Rat, Liver, S-9, Phenobarbital and 5,6-benzoflavone, Method: Preincubation active; positive | Test System: Ames Salmonella typhimurium, Strain/Indicator: YG1029, Metabolic Activation: Rat, Liver, S-9, Phenobarbital and 5,6-benzoflavone, Method: Preincubation active; positive

C1=C\CC/C=C\CC/1.C1=C\CC/C=C\CC/1.[Ni]
inactive: Test System: AMES SALMONELLA TYPHIMURIUM, Strain/Indicator: TA97, Metabolic Activation: HAMSTER, LIVER, S-9, AROCLOR 1254 (10%), Method: PREINCUBATION inactive; negative | Test System: AMES SALMONELLA TYPHIMURIUM, Strain/Indicator: TA97, Metabolic Activation: HAMSTER, LIVER, S-9, AROCLOR 1254 (30%), Method: PREINCUBATION inactive; negative | Test System: AMES SALMONELLA TYPHIMURIUM, Strain/Indicator: TA97, Metabolic Activation: NONE, Method: PREINCUBATION inactive; negative | Test System: AMES SALMONELLA TYPHIMURIUM, Strain/Indicator: TA97, Metabolic Activation: RAT, LIVER, S-9, AROCLOR 1254 (10%), Method: PREINCUBATION inactive; negative | Test System: AMES SALMONELLA TYPHIMURIUM, Strain/Indicator: TA97, Metabolic Activation: RAT, LIVER, S-9, AROCLOR 1254 (30%), Method: PREINCUBATION inactive; negative | Test System: AMES SALMONELLA TYPHIMURIUM, Strain/Indicator: TA98, Metabolic Activation: HAMSTER, LIVER, S-9, AROCLOR 1254 (10%), Method: PREINCUBATION inactive; negative | [1] inactive; negative | Test System: AMES SALMONELLA TYPHIMURIUM, Strain/Indicator: TA98, Metabolic Activation: RAT, LIVER, S-9, AROCLOR 1254 (10%), Method: PREINCUBATION inactive; negative | Test System: AMES SALMONELLA TYPHIMURIUM, Strain/Indicator: TA100, Metabolic Activation: HAMSTER, LIVER, S-9, AROCLOR 1254 (10%), Method: PREINCUBATION inactive; negative | Test System: AMES SALMONELLA TYPHIMURIUM, Strain/Indicator: TA100, Metabolic Activation: HAMSTER, LIVER, S-9, AROCLOR 1254 (30%), Method: PREINCUBATION inactive; negative | [3] inactive; negative | Test System: AMES SALMONELLA TYPHIMURIUM, Strain/Indicator: TA100, Metabolic Activation: RAT, LIVER, S-9, AROCLOR 1254 (30%), Method: PREINCUBATION inactive; negative | Test System: AMES SALMONELLA TYPHIMURIUM, Strain/Indicator: TA1535, Metabolic Activation: HAMSTER, LIVER, S-9, AROCLOR 1254 (10%), Method: PREINCUBATION inactive; negative | [4] inactive; negative | Test System: AMES SALMONELLA TYPHIMURIUM, Strain/Indicator: TA1535, Metabolic Activation: RAT, LIVER, S-9, AROCLOR 1254 (10%), Method: PREINCUBATION inactive; negative | [5] inactive; negative | Test System: Ames Salmonella typhimurium, Strain/Indicator: TA100, Metabolic Activation: Rat, Liver, S9, Phenobarbital and 5,6-benzoflavone, Method: Preincubation inactive; negative | Test System: Ames Salmonella typhimurium, Strain/Indicator: TA102, Metabolic Activation: None, Method: Preincubation inactive; negative | Test System: Ames Salmonella typhimurium, Strain/Indicator: TA102, Metabolic Activation: Rat, Liver, S9, Phenobarbital and 5,6-benzoflavone, Method: Preincubation inactive; negative
active: Test System: AMES SALMONELLA TYPHIMURIUM, Strain/Indicator: TA100, Metabolic Activation: RAT, LIVER, S-9, AROCLOR 1254 (10%), Method: PREINCUBATION active; positive
